The values that follow come from ChEMBL document CHEMBL1129258, “Synthesis and structure-activity relationships of 2-pyridones: a novel series of potent DNA gyrase inhibitors as antibacterial agents” (J Med Chem, 1996).

The nature of data set [1]: In vitro antibacterial activity against gram-negative organism Pseudomonas aeruginosa 5007. The class given is functional. Particulars: Pseudomonas aeruginosa; read-out: MIC.
The target of data set [2] is T1, DNA gyrase (Escherichia coli) (UniProt P0AES6+P0AES4). Nature of the data set: In vivo efficacy against Escherichia coli JUHL by subcutaneous administration. The class given is functional, organism-based. The following applies: Escherichia coli K-12.
Data set [3] in a line: In vitro antibacterial activity against gram-negative organism Pseudomonas aeruginosa DPHD-2862. Particulars: Pseudomonas aeruginosa; read-out: MIC. The class given is functional.
The target in data set [4] is T1, DNA gyrase (Escherichia coli). Nature of the data set: In vitro antibacterial activity against gram-negative organism Prov. stuartii CMX-640. The class given is functional. The following applies: Providencia stuartii.
The test system of data set [5] is Pseudomonas aeruginosa. As to the kind of experiment: In vivo efficacy against Pseudomonas aeruginosa 5007 following p.o. administration.
Data set [6] in a line: In vivo efficacy against Pseudomonas aeruginosa 5007 after subcutaneous administration. Particulars: Pseudomonas aeruginosa, sc; read-out: ED50. The class given is functional.
Data set [7] deals with Enterococcus faecium. Nature of the data set: In vitro antibacterial activity against gram-positive organism Enterococcus faecium ATCC 8043.
Data set [8] concerns the target T1, DNA gyrase (Escherichia coli). Nature of the data set: In vivo efficacy against Escherichia coli JUHL after oral administration. Particulars: Escherichia coli K-12. The class given is functional, organism-based.
The target is the same in data set [9]. The following applies: Escherichia coli K-12.
Description: Concentration which causes 50% of the gyrase (Escherichia coli H560)-mediated maximal DNA cleavage.
Data set [10] shares this target. As to the kind of experiment: In vitro antibacterial activity against gram-negative organism […] ATCC 13048. The class given is functional. The following applies: Enterobacter aerogenes.
Data set [11] deals with Streptococcus pyogenes. Nature of the data set: In vitro antibacterial activity against gram-positive organism Streptococcus pyogenes EES61. The following applies: Streptococcus pyogenes; read-out: MIC. The class given is functional.
Data set [12] deals with T2, DNA gyrase (Staphylococcus aureus) (UniProt P0A0K8+P20831). As to the kind of experiment: In vivo efficacy against Staphylococcus aureus NCTC-10649M after oral administration. The class given is functional, organism-based.
Data set [13] concerns the target T1, DNA gyrase (Escherichia coli). Nature of the data set: In vitro antibacterial activity against gram-positive organism Streptococcus bovis A-5169. Particulars: Streptococcus equinus. The class given is functional.
The target of data set [14] is T2, DNA gyrase (Staphylococcus aureus). Nature of the data set: In vitro antibacterial activity against gram-positive organism Staphylococcus aureus 1775. The class given is functional.
For data set [15] the target is unchanged. Nature of the data set: In vitro antibacterial activity against gram-positive organism Staphylococcus aureus NCTC-10649M. The class given is functional.
Data set [16] addresses T1, DNA gyrase (Escherichia coli). Nature of the data set: In vitro antibacterial against gram-negative organism Escherichia coli JUHL. The following applies: Escherichia coli K-12. The class given is functional.
Data set [17] addresses T2, DNA gyrase (Staphylococcus aureus). Nature of the data set: (§1) In vivo efficacy against Staphylococcus aureus NCTC-10649M after subcutaneous administration. The class given is functional, organism-based.
In data set [18] the target is T1, DNA gyrase (Escherichia coli). Nature of the data set: In vitro antibacterial activity against gram-negative organism Klebsiella pneumoniae ATCC 8045. The class given is functional.
For data set [19], the target named is T2, DNA gyrase (Staphylococcus aureus). As to the kind of experiment: In vitro antibacterial activity against gram-positive organism Staphylococcus aureus ATCC 6538p. The class given is functional.
In data set [20] the target is T1, DNA gyrase (Escherichia coli). Nature of the data set: In vitro antibacterial activity against gram-positive organism Enterococcus faecium ATCC 8043. The class given is functional.
The test system of data set [21] is Streptococcus pneumoniae. As to the kind of experiment: (§2) In vivo efficacy against Strep. administration. The class given is functional.
Data set [22] can be described thus: in vivo. Particulars: rat, po, 5 mg/kg.
Description: Oral bioavailability in rat (dose 5 mg/kg)
Data set [23] relates to Streptococcus pneumoniae. The description is as §2. The class given is functional. This is another data set of the same source.
Data set [24] can be described thus: in vivo. Particulars: rat, plasma, po, 5 mg/kg.
Data set [25] can be described thus: Maximum plasma concentration in rats after an oral dose of 5 mg/kg. The following applies: rat.
Data set [26] deals with Staphylococcus aureus. The description is as §1. The class given is functional. The following applies: sc.

Converted amounts (≈) assume the structure as drawn.

T2 sequence (P0A0K8 2-644 limits assumed): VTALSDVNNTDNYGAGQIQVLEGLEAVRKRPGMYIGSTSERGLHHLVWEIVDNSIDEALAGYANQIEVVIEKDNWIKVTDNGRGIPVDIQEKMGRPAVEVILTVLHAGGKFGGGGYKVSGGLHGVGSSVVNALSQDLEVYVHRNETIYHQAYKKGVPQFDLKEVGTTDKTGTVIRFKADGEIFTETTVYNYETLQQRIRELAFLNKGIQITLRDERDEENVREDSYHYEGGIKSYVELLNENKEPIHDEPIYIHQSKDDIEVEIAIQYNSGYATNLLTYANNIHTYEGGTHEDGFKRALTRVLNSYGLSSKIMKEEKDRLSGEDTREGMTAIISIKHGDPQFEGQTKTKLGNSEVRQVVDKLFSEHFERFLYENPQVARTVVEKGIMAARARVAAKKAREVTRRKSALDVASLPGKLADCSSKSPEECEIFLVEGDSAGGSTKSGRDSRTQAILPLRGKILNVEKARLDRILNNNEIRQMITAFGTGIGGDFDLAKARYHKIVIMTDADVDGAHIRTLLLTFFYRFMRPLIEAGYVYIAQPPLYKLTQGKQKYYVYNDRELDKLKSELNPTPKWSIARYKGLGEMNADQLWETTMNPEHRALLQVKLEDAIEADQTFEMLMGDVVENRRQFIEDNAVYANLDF
T2 sequence (P20831 whole entry partner): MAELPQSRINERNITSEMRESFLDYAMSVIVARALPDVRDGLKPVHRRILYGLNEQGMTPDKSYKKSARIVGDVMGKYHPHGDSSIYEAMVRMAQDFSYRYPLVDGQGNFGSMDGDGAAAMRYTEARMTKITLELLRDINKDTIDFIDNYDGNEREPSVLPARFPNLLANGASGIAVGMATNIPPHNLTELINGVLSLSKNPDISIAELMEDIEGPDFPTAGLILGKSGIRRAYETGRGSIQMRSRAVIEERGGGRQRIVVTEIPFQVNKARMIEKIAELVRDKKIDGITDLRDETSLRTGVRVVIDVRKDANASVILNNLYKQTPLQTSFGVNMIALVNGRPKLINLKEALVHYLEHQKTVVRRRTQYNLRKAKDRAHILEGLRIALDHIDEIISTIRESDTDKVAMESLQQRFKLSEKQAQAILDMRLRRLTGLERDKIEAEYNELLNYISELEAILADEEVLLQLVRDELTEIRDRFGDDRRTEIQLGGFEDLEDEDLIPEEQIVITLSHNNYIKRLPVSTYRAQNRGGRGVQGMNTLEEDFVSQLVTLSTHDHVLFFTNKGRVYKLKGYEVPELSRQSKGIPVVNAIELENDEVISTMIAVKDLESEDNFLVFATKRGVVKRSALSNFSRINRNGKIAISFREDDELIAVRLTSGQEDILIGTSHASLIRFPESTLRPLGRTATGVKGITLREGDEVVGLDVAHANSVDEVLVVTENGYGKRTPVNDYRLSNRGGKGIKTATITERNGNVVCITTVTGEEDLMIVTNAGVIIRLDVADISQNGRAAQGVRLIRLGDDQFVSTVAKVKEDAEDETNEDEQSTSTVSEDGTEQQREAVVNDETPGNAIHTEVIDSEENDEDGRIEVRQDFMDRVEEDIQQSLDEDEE

In general, ED50 refers to the dose at which the effect has come halfway, by size or by number of responders. Turning to `NC1CCN(c2nc3c(-c4ccc(F)cc4F)cc(C(=O)O)c(=O)n3cc2F)C1` (configuration not stated), the MIC in [1] was found to be 0.39 µg/mL (≈ 0.965 µM); in data set [3] it was 100 µg/mL (≈ 247 µM); in data set [4], 1.56 µg/mL (≈ 3.86 µM); in data set [7], 0.78 µg/mL (≈ 1.93 µM); in [10], 0.05 µg/mL (≈ 0.124 µM); in data set [11] it was 0.39 µg/mL (≈ 0.965 µM). The MIC in data set [13] was 1.56 µg/mL (≈ 3.86 µM); in data set [14], over 100 µg/mL; in [15], 0.1 µg/mL (≈ 0.247 µM); in data set [16], 0.02 µg/mL (≈ 0.0495 µM); in data set [18], 0.02 µg/mL (≈ 0.0495 µM); in data set [19], 0.1 µg/mL (≈ 0.247 µM). Besides, the ED50 came to 1 mg/kg in data set [2]; 42.1 mg/kg in data set [5]; 10.3 mg/kg in data set [6]; 5.6 mg/kg in [8]; 12 mg/kg in data set [12]; 4.4 mg/kg in [17]. The same compound yielded a CC50 in [9] of 0.5 µg/mL (≈ 1.24 µM).

The bioavailability is the share of a dose that reaches the circulation, judged against a reference dose that is usually intravenous. Low values mean poor availability, high ones good availability. As a reminder, the half-life is how long it takes for the measured level to halve. As usually defined, the Cmax is the highest concentration seen after dosing. For `Cc1c(N2CCC(O)C2)c(F)cn2c(=O)c(C(=O)O)cc(C3CC3)c12` (configuration not stated), the MIC is 0.05 µg/mL (≈ 0.144 µM) in data set [20]; 0.2 µg/mL (≈ 0.577 µM) in [1]; 6.2 µg/mL (≈ 17.9 µM) in [3]; 0.2 µg/mL (≈ 0.577 µM) in data set [4]; 0.02 µg/mL (≈ 0.0577 µM) in data set [10]; 0.05 µg/mL (≈ 0.144 µM) in data set [11]. In addition, the MIC in [13] was determined as 0.05 µg/mL (≈ 0.144 µM); in [14], 0.2 µg/mL (≈ 0.577 µM); in data set [15], 0.005 µg/mL (≈ 0.0144 µM); in data set [16], 0.02 µg/mL (≈ 0.0577 µM); in [18], 0.02 µg/mL (≈ 0.0577 µM); in data set [19] it was 0.01 µg/mL (≈ 0.0289 µM). The ED50 is 41.5 mg/kg in data set [21]; over 1 mg/kg in data set [2]; over 50 mg/kg in data set [5]; over 8 mg/kg in data set [6]; over 5 mg/kg in data set [8]; 7.4 mg/kg in [23]. The results for the ED50 in data set [12] and in data set [26] were 15.2 mg/kg and 11.3 mg/kg, respectively. Besides, in data set [22], the bioavailability was found to be 50%. For the same compound, the half-life in [24] is 5.4 h. In data set [25], this compound came in with a Cmax of 1420 ng/mL.
